Measurements taken from article PMC7434922, “Key role of quinone in the mechanism of respiratory complex I” (Nature Communications, 2020).

B2: Complex I subunit Nqo8 (Thermus thermophilus) (natural protein, T. thermophilus HB8, UniProt Q60019 1-365, looked up)
chain: MTWSYPVDPYWMVALKALLVVVGLLTAFAFMTLIERRLLARFQVRMGPNRVGPFGLLQPLADAIKSIFKEDIVVAQADRFLFVLAPLISVVFALLAFGLIPFGPPGSFFGYQPWVINLDLGILYLFAVSELAVYGIFLSGWASGSKYSLLGSLRSSASLISYELGLGLALLAPVLLVGSLNLNDIVNWQKEHGWLFLYAFPAFLVYLIASMAEAARTPFDLPEAEQELVGGYHTEYSSIKWALFQMAEYIHFITASALIPTLFLGGWTMPVLEVPYLWMFLKIAFFLFFFIWIRATWFRLRYDQLLRFGWGFLFPLALLWFLVTALVVALDLPRTYLLYLSALSFLVLLGAVLYTPKPARKGGGA
notes: Nqo8, core subunit of the membrane domain of respiratory complex I, Thermus thermophilus HB8; Endogenous subunit inside the crystallised intact complex; source: purified from T. thermophilus HB8 cells as part of intact complex I (anion exchange, cation exchange, gel filtration)

How the values were obtained:
[1] = biological target: T1, T. thermophilus complex I (quinone site, Q-site) (Thermus thermophilus, UniProt Q56218+Q56220+Q60019); experiment: NADH:DQ oxidoreductase activity, absorbance at […] nm; format: biochemical
T1 construct: gene nqo4; native intact complex purified from T. thermophilus HB8 membranes in TDM; 16 subunits, 550 kDa; for crystals recombinant His-tagged Nqo16 (E. coli) was added; activity preparation has sub-stoichiometric Nqo16; with NADH-quinone oxidoreductase subunit 1; NADH-quinone oxidoreductase subunit 2; NADH-quinone oxidoreductase subunit 3; NADH-quinone oxidoreductase subunit 5; NADH-quinone oxidoreductase subunit 7; NADH-quinone oxidoreductase subunit 9; NADH-quinone oxidoreductase subunit 10; NADH-quinone oxidoreductase subunit 11; NADH-quinone oxidoreductase subunit 12; NADH-quinone oxidoreductase subunit 13; NADH-quinone oxidoreductase subunit 14; NADH-quinone oxidoreductase subunit 15; NADH-quinone oxidoreductase subunit 16
T1 sequence (Q56222 whole entry partner, one chain of several): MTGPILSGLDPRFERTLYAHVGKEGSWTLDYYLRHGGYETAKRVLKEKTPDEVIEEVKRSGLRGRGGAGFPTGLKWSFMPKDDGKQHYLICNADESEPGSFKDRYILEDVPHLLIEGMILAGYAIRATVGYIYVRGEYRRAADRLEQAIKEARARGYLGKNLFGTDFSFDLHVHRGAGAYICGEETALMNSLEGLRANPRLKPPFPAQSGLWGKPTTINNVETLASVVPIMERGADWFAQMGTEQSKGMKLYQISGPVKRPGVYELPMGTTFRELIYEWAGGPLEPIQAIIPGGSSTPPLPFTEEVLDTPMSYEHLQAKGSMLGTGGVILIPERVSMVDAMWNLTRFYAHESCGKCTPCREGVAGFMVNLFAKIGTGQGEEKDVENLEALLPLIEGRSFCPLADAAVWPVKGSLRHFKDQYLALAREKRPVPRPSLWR

[2] = biological target: T1, T. thermophilus complex I (quinone site, Q-site); experiment: biochemical; design: NADH:decylubiquinone oxidoreductase activity of purified complex I, NADH absorbance at 340 nm, 50 °C
Protocol: Complex I activity was measured at 50 °C with DQ as an electron acceptor. To a 2 mL quartz cuvette containing DQ assay buffer (50 mM Bis–Tris pH 6.0, 25 mM NaCl, 2 mM CaCl2), 0.25 mg mL^−1 asolectin (Fluka), 8 μg mL^−1 complex I protein, and 100 μM DQ were added. The sample was incubated for 5 min whilst stirred at 400 rpm, to allow for the equilibration of the protein/DQ/lipid/detergent mixture. The reaction was started by adding 100 μM NADH and the change in absorbance was followed at 340 nm, over 30 s under constant stirring. Specific enzyme activity was calculated in μmol NADH oxidized mg^−[…]. When required, inhibitors of complex I were added after DQ, prior to the 5-min incubation period. Lipids were prepared by mixing asolectin in a small volume of chloroform (1 mL) before evaporating the solvent under a stream of nitrogen gas, and were resuspended in 1% CHAPS to a final concentration of 5 mg mL^−1 before use. […] IC50’s for a range of common complex I inhibitors are listed in the Supplementary Table 3. […] Crystal structures of complex I with bound DQ and Q-like inhibitors also show a rotation of PA, like that observed in MJ–MN transition. However, its degree of torsion depends strongly on the Q-ligand, with DQ introducing the largest conformational change (Supplementary Fig. 7d, e). All Q-like ligands studied here display a similar pattern of interactions at the deepest end of the Q-cavity, with the headgroup about 12 Å away from cluster N2 (Fig. 4). A shared feature between all ligands bound in the Q-site is a hydrogen bond interaction of a ketone group from the quinone ring with the conserved and essential for complex I activity Y87_4[16],[36]. Other key residues, such as H38_4 from the key β1–β2 loop (33-QHPSTHG-39) in Nqo4 and M51_6, also contribute to the stabilization of the quinone ring, while secondary residues are involved specifically in the binding of each ligand (Fig. 4 and Supplementary Fig. 2). […] In the case of [compound left out], H38_4 stabilizes its outer ether group, while M51_6 interacts with the oxygen in the furanose ring (Fig. 4c). The distal nitrobenzene moiety is surrounded by both charged and nonpolar residues that, despite the lack of direct interaction, might form a suitable pocket for its accommodation.

[3] = biological target: T2, Intact complex I (NADH:ubiquinone oxidoreductase) purified from Thermus thermophilus, the form without Nqo16 (T. thermophilus HB8, UniProt Q56222 1-438; Q56221 1-181; Q56223 1-783; Q56220 1-409; Q56219 1-207; Q56218 …); experiment: crystal structure; intact complex I purified from T. thermophilus mixed with purified recombinant Nqo16 (1:0.2 CXI:Nqo16), sitting drop at 23 °C, 100 mM Bis-Tris pH 6.0, 19-25% PEG 4000, 100 mM KCl, 100 mM glutaric acid, detergents; native crystals and crystals soaked or co-crystallised with NADH, decylubiquinone, piericidin A, aureothin or pyridaben; conditions: both partners purified
T2 construct: Nqo1, complex I subunit, Thermus thermophilus HB8; Nqo2, complex I subunit, Thermus thermophilus HB8; Nqo3, complex I subunit, Thermus thermophilus HB8; Nqo4, complex I subunit, Thermus thermophilus HB8; Nqo5, complex I subunit, Thermus thermophilus HB8; Nqo6, complex I subunit, Thermus thermophilus HB8; Nqo7, complex I subunit, Thermus thermophilus HB8; Nqo8, complex I subunit, Thermus …

[4] = biological target: T3, Complex I subunit Nqo4 (Thermus thermophilus) (T. thermophilus HB8, UniProt Q56220 1-409); experiment: as above; conditions: both partners purified
T3 construct: Nqo4, core subunit of the peripheral arm of respiratory complex I, Thermus thermophilus HB8; Endogenous subunit inside the crystallised intact complex; source: purified from T. thermophilus HB8 cells as part of intact complex I (anion exchange, cation exchange, gel filtration)
T3 sequence (looked up): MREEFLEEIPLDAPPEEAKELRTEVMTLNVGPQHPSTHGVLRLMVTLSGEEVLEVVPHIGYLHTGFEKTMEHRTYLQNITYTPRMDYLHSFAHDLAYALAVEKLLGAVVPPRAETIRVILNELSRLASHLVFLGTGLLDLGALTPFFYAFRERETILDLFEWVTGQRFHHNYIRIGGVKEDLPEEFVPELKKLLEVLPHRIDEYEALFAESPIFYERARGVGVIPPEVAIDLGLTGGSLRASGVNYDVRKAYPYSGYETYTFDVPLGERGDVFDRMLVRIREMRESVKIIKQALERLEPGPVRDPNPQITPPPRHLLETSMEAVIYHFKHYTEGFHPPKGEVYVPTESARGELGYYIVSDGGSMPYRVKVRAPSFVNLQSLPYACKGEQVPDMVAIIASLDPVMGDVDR

[5] = biological target: B2; experiment: as above; conditions: both partners purified

COc1oc([C@H]2C/C(=C/C(C)=C/c3ccc([N+](=O)[O-])cc3)CO2)c(C)c(=O)c1C [AUT, aureothin]
IC50 ([1]; read-out: IC50): 10.3 nM

COc1cc(CNC(=O)CCCC/C=C/C(C)C)ccc1O [Capsaicin]
IC50 ([2]; read-out: IC50 (µM in cell)): 197 µM

Cc1nn(C)c(Oc2ccccc2)c1/C=N/OCc1ccc(C(=O)OC(C)(C)C)cc1 [Fenpyroximate]
IC50 ([2]; read-out: IC50 (nM in cell)): 0.63 µM

C/C=C(\C)[C@H](O)[C@H](C)/C=C(C)/C=C/C/C(C)=C/Cc1nc(OC)c(OC)c(O)c1C [PIE, piericidin A]
IC50 [1]: 31 nM

CC(C)(C)c1ccc(CSc2cnn(C(C)(C)C)c(=O)c2Cl)cc1 [PYR, pyridaben]
IC50 ([1]; read-out: IC50): 15.6 nM

CCCCCCCCCC[C@H](O)[C@H]1CC[C@@H]([C@@H]2CC[C@H]([C@H](O)CCCCCCCCCC[C@@H](O)CC3=C[C@H](C)OC3=O)O2)O1 [Rolliniastatin-1]
IC50 ([2]; read-out: IC50 (nM in cell)): 0.93 µM

C/C=C(C)/C=C/C=C/[C@H](OC)[C@@H](C)[C@@H](OC)[C@@H](C)CCc1oc2c(O)c(OC)cc(OC)c2c(=O)c1C [Stigmatellin]
IC50 ([2]; read-out: IC50 (µM in cell)): 60 µM

C=C(C)[C@H]1Cc2c(ccc3c2O[C@@H]2COc4cc(OC)c(OC)cc4[C@@H]2C3=O)O1 [rotenone]
IC50 ([1]; read-out: IC50): 190 nM

B1: Heterologously expressed subunit Nqo16 (ttha1528 gene), His-tagged (natural protein, T. thermophilus HB8, UniProt Q5SI52 1-131, looked up)
chain: MVRVGMRAAPRVSLEALKAALGGLKLSEAKVYLITDWQDKRDQARYALLLHTGKKDLLVPDAFGPAFPGGEEALSELVGLLLAQGARRFYEAVVSPGEMTALLDLPPEELLKRVMAIANPTDPGIYLKRAA
notes: reverse primer with the stop codon) and cloned into pet16b; Full length is read from the printed primers (start codon in the NdeI site to the stop codon); also called His-tagged Nqo16; source: E. coli BL21(DE3), purified (heat treatment 70 °C, Ni-NTA)
binding result [3]: binds

B2
binding result [4]: binds

B3: Complex I subunit Nqo10 (Thermus thermophilus) (natural protein, T. thermophilus HB8, UniProt Q56225 1-176, looked up)
chain: MSLLEGLALFLLLLSGVLVVTLRNAIHAALALILNFLVLAGVYVALDARFLGFIQVIVYAGAIVVLFLFVIMLLFAAQGEIGFDPLVRSRPLAALLALGVAGILAAGLWGLDLAFTQDLKGGLPQALGPLLYGDWLFVLLAVGFLLMAATVVAVALVEPGKASRAKEAEKREEVAR
notes: Nqo10, core subunit of the membrane domain of respiratory complex I, Thermus thermophilus HB8; Endogenous subunit inside the crystallised intact complex; source: purified from T. thermophilus HB8 cells as part of intact complex I (anion exchange, cation exchange, gel filtration)
binding result [5]: binds

B4: Complex I subunit Nqo6 (Thermus thermophilus) (natural protein, T. thermophilus HB8, UniProt Q56218 1-181, looked up)
chain: MALKDLFERDVQELEREGILFTTLEKLVAWGRSNSLWPATFGLACCAIEMMASTDARNDLARFGSEVFRASPRQADVMIVAGRLSKKMAPVMRRVWEQMPDPKWVISMGACASSGGMFNNYAIVQNVDSVVPVDVYVPGCPPRPEALIYAVMQLQKKVRGQAYNERGERLPPVAAWKRTRG
notes: Nqo6, core subunit of the peripheral arm of respiratory complex I, Thermus thermophilus HB8; Endogenous subunit inside the crystallised intact complex; source: purified from T. thermophilus HB8 cells as part of intact complex I (anion exchange, cation exchange, gel filtration)
binding result [5]: binds
